Among the data in PubChem BioAssay (NCI) are TGI values, retold here.

Test systems include COLO 205 colon; SF-539 CNS; HT29 colon; OVCAR-4 ovarian; HCT-116 colon; SK-OV-3 ovarian; OVCAR-3 ovarian; T-47D breast; IGROV1 ovarian; NCI-H460 lung; SF-295 CNS.
Holding throughout (assay): NCI anticancer screen, dose series, 48 h

Each structure is given as a SMILES string. Several values for one entry are separate records, joined by “and”; a condition that tells them apart may be missing. Identical values can stand only once.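 Grown in 96-well plates, cells were treated for 48 hours with each compound at five concentrations. Insufficient inhibition: endpoint recorded as highest concentration tested. TGI: total growth inhibition.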

Regarding `O=[N+]([O-])C1(C2([N+](=O)[O-])CCCC2)CCCC1`, the TGI with COLO 205 colon, with SF-539 CNS, in the assay on HT29 colon, in the assay on OVCAR-4 ovarian, in the assay on HCT-116 colon and in the assay with SK-OV-3 ovarian was above 100 µM in each case. Also, the TGI in the assay with OVCAR-3 ovarian, in the assay with T-47D breast, with IGROV1 ovarian and with NCI-H460 lung was above 100 µM throughout.

Consider `N#Cc1c(NC(=S)NCc2ccccc2)sc2c1CCN(N1CCc3c(sc(NC(=S)NCc4ccccc4)c3C#N)C1)C2`, for which the TGI in the assay on COLO 205 colon, in the assay with SF-539 CNS, in the assay with HT29 colon, in the assay on OVCAR-4 ovarian, with HCT-116 colon and in the assay with SK-OV-3 ovarian was above 100 µM in each case. The TGI with SF-295 CNS, with OVCAR-3 ovarian, in the assay with T-47D breast, in the assay with IGROV1 ovarian and in the assay on NCI-H460 lung was above 100 µM each time.

Consider `COc1ccc(NC2=NCCO2)c2ccccc12`, for which the TGI in the assay with COLO 205 colon, with SF-539 CNS, in the assay on HT29 colon, in the assay with OVCAR-4 ovarian, in the assay with HCT-116 colon and with SK-OV-3 ovarian was above 10 µM each time. Also, the TGI in the assay with SF-295 CNS, in the assay with OVCAR-3 ovarian, in the assay with T-47D breast, with IGROV1 ovarian and in the assay with NCI-H460 lung was above 10 µM each time.

Turning to `Cc1cn(C2CC(N=[N+]=[N-])C(CO[Si](C)(C)C(C)(C)C)O2)c(=O)[nH]c1=O` (stereo not given), the TGI with COLO 205 colon is 35.6 µM; with SF-539 CNS it was 35.6 µM; in the assay with HT29 colon, 32.4 µM; in the assay with OVCAR-4 ovarian, 28.1 µM; with HCT-116 colon it was 29.6 µM; with SK-OV-3 ovarian it was 37.1 µM. The TGI in the assay with SF-295 CNS turned out to be 34.6 µM; with OVCAR-3 ovarian, 34.9 µM; in the assay with T-47D breast, 75.6 µM; in the assay on IGROV1 ovarian, 37.3 µM.

`C=CCn1c(=O)c(C)cn(/C(=C/C(=O)OCC)C(=O)OCC)c1=O`: the TGI with COLO 205 colon was 15.2 µM; in the assay with SF-539 CNS, 63.2 µM; in the assay with HT29 colon, 25.8 µM; in the assay with OVCAR-4 ovarian, 46.4 µM; in the assay on HCT-116 colon it was 21.5 µM; in the assay with SK-OV-3 ovarian it was above 100 µM. In addition, the TGI was above 100 µM with SF-295 CNS; 23.3 µM in the assay on OVCAR-3 ovarian; 30.7 µM in the assay with T-47D breast; 31.4 µM with IGROV1 ovarian; above 68.9 µM in the assay on NCI-H460 lung.

As to `C[C@@H]1OC(=O)C[C@H]2CC(=O)N(CCc3cn(S(=O)(=O)C(F)(F)F)c4ccccc34)C[C@@H]21`, the TGI in the assay with COLO 205 colon, in the assay with HT29 colon, with OVCAR-4 ovarian, in the assay with HCT-116 colon, with SK-OV-3 ovarian and in the assay with SF-295 CNS was above 100 µM each time. The TGI in the assay on OVCAR-3 ovarian, in the assay on T-47D breast, in the assay on IGROV1 ovarian and in the assay on NCI-H460 lung was above 100 µM throughout.

For the molecule `CC1=C(C(=O)OC(C)C)C(c2ccccc2[N+](=O)[O-])C(C(=O)OC(CO[N+](=O)[O-])CO[N+](=O)[O-])=C(C)N1` (stereo not given), the TGI in the assay with COLO 205 colon was 38.8 µM; in the assay on HT29 colon, 7.98 µM; with OVCAR-4 ovarian, 22.4 µM; in the assay with HCT-116 colon, 11.4 µM; in the assay on SK-OV-3 ovarian, 12.6 µM; in the assay with SF-295 CNS, 6.95 µM. Besides, the TGI in the assay on OVCAR-3 ovarian is 76.7 µM; with T-47D breast, above 100 µM; with IGROV1 ovarian, 27.9 µM; with NCI-H460 lung it was 16 µM.

With `Cn1c(=O)n(CC(Br)CBr)c(=O)n(CC(Br)CBr)c1=O` (stereo not given), the TGI in the assay with COLO 205 colon is 43.4 µM; with SF-539 CNS, 61.1 µM; in the assay with HT29 colon, 54.6 µM; in the assay with OVCAR-4 ovarian, above 100 µM; in the assay on HCT-116 colon, 79.3 µM; with SK-OV-3 ovarian it was above 100 µM. In addition, the TGI in the assay on SF-295 CNS, in the assay with OVCAR-3 ovarian, with T-47D breast, in the assay with IGROV1 ovarian and in the assay on NCI-H460 lung was above 100 µM throughout.

Regarding `CO[C@H]1O[C@@H]2CO[C@@H](c3ccccc3)O[C@H]2C[C@]12CCC/C=C\CO2`, the TGI is 26.6 µM with COLO 205 colon; 29.1 µM in the assay on SF-539 CNS; 40.5 µM in the assay with HT29 colon; above 75 µM with OVCAR-4 ovarian; 23.5 µM with HCT-116 colon; above 75 µM in the assay with SK-OV-3 ovarian. Moreover, the TGI in the assay with SF-295 CNS was above 75 µM; with OVCAR-3 ovarian, 24.6 µM; in the assay with T-47D breast, 59.6 µM; in the assay on NCI-H460 lung, above 75 µM.

Turning to `COCN1C(=O)[C@@H]2CCCN2C(=O)c2cc([N+](=O)[O-])ccc21`, the TGI in the assay on COLO 205 colon, with SF-539 CNS, in the assay with HT29 colon, in the assay with OVCAR-4 ovarian, with HCT-116 colon and in the assay with SK-OV-3 ovarian was above 100 µM each time. Further, the TGI with SF-295 CNS, with T-47D breast and in the assay with IGROV1 ovarian was above 100 µM throughout.

`O=C(/C=C/c1ccc(Cl)c(Cl)c1)Oc1ccc(/C=C2\CCCCC2=O)cc1`: the TGI with COLO 205 colon, in the assay with SF-539 CNS, in the assay on HT29 colon, in the assay with OVCAR-4 ovarian, in the assay with HCT-116 colon and with SF-295 CNS was above 100 µM in each case. Further, the TGI in the assay on OVCAR-3 ovarian, in the assay with T-47D breast, in the assay with IGROV1 ovarian and with NCI-H460 lung was above 100 µM in each case.

For the molecule `CC(=O)c1cccc(NC2C(N)C(NC(=O)N(C)C)(C(C)O)C(C)(O)C2(O)COC(=O)c2c(C)cccc2O)c1` (stereo not given), the TGI in the assay with SF-539 CNS is below 0.001 µM; in the assay with HT29 colon, 1.08 µM and 0.113 µM; in the assay on HCT-116 colon it was 0.0437 µM and 0.185 µM; with SK-OV-3 ovarian it was 0.0808 µM and 0.205 µM; in the assay on SF-295 CNS, 0.164 µM and 0.231 µM; in the assay on OVCAR-3 ovarian it was 0.262 µM. The same molecule registered a TGI in the assay with T-47D breast of 0.00834 µM.

For the molecule `CC1(C)CC(=O)c2c(nc3ccc4ccccc4c3c2-c2ccc(NC(=O)CCCCC(=O)Nc3ccc(-c4c5c(nc6ccc7ccccc7c46)CC(C)(C)CC5=O)cc3)cc2)C1`, the TGI with COLO 205 colon, in the assay with SF-539 CNS, with HT29 colon, in the assay with HCT-116 colon, in the assay on SK-OV-3 ovarian and in the assay on SF-295 CNS was above 100 µM each time. The TGI in the assay on OVCAR-3 ovarian, with T-47D breast, in the assay on IGROV1 ovarian and in the assay with NCI-H460 lung was above 100 µM in each case.
